Data on 4 molecules can be found in paper PMC12428754, “Testing Strategies for Metabolite-Mediated Neurotoxicity” (International Journal of Molecular Sciences, 2025).

One assay concerns LUHMES cells. The experiment in a line: MitoMet (UKN4b) neurite outgrowth assay. The assay is classed as cell-based, human. Particulars: for IC25: read-out: BMC25 neurite outgrowth; for fold change between BMC25 values of parent and metabolite (potency ratio, parent divided by metabolite): listed under the metabolite, >1 = metabolite more potent. The procedure: Figure 1 (A) A strategy scheme to assess metabolite-mediated hazard in NAMs used for neurotoxicity or developmental neurotoxicity. Parent and metabolite compounds are tested separately in the respective assay. This strategy is applicable when there is prior knowledge of metabolite formation. A decision rule based on the relative toxicities (X) of the parent and metabolite may be applied to decide whether next-generation risk assessment (NGRA) should be applied to the metabolite. The value of X may be defined according to the problem formulation and the NAM used. (B) An assay scheme of the neurite outgrowth assay used here for exemplification: Proliferating LUHMES cells were replated one day before differentiation was initiated (day −1). After two days (day 2) in differentiation medium, the cells were replated into assay format (96-well). At this point, neurite growth was re-initiated. The cells were treated with toxicants 1 h after replating. Neurite outgrowth and viability were determined 24 h later, using automated high content imaging. (C) Comparison of neurite outgrowth of cultures treated with bromethalin and desmethyl-bromethalin one exemplary parent/metabolite pair (chemical structures shown). […] The curves are based on data from three independent experiments and were fitted using a four-parameter Hill function. Data points shown are arithmetic means of data from independent experiments ±SEM. In each independent experiment, the technical replicates were measured and averaged. A benchmark response (BMR) of 25% was used as specified in the detailed assay description, and the respective benchmark concentration (BMC25) was determined. […] (D) Microscopic images of calcein-stained LUHMES cells. Similar images are used for neurite quantification. Treatment with 40 nM of the parent (left) or metabolite (right). The scale bar in orange corresponds to 50 µm. […] It stands under panel C and to the right of panel D, and was assigned to C.
The MitoMet neurite outgrowth assay was performed as previously described. In brief, all cell culture dishes and flasks were pre-coated with 50 μg/mL poly-l-ornithine (PLO) and 1 μg/mL fibronectin. Proliferating LUHMES cells were maintained in AdvDMEM/F12 containing L-glutamine (2 mM), N2 supplement (1x), and FGF (40 ng/mL). For pre-differentiation, the cells were replated at a density of 46,000 cells/cm^2 one day prior to the induction of differentiation (defined as the day of differentiation, Day −1). Differentiation was initiated by exchanging the culture medium for AdvDMEM/F12 supplemented with L-glutamine (2 mM), N2 supplement (1x), dibutyryl-cAMP (1 mM), tetracycline (1 µg/mL), and GDNF (2 ng/mL). After two days of differentiation (Day 2), the cells were replated (100,000 cells/cm^2) into 96-well plates. The final assay medium consisted of glucose-free AdvDMEM/F12 supplemented with galactose (18 mM), L-glutamine (2 mM), and tetracycline (1 µg/mL). One hour after replating, the cells were treated with a 10× concentrated stock solution of the test compound. Neurite outgrowth and viability were determined 24 h later, using automated high content imaging.
The image acquisition and analysis were conducted according to established protocols. The cells were stained with Hoechst H-33342 (1 µg/mL) to visualise nuclei and calcein-AM (1 µM) to label viable cell structures. Fluorescent images were acquired using an automated imaging system.

Assay [1] has as its system hiPSC-derived immature human dorsal root ganglia neuron-like cells. The experiment in a line: PeriTox (UKN5a) neurite outgrowth assay. Type of assay: cell-based. The procedure:
PeriTox assay was performed as previously described. In brief, cryopreserved hiPSC-derived immature human dorsal root ganglia neuron-like cells were thawed and plated at a density of 100,000 cells/cm^2 into matrigel-coated 96-well plates. The cells were cultured in 75 µL PeriTox differentiation medium (PDM) consisting of 25% KSR-S and 75% N2-S media supplemented with 1.5 µM CHIR99021, 1.5 µM SU5402, and 5 µM DAPT (KSR-S: knockout DMEM with 15% serum replacement, 1x Glutamax, 1x nonessential amino acids, and […] beta-mercaptoethanol; N2-S: DMEM/F12, with 2 mM Glutamax, 0.1 mg/mL apotransferrin, 1.55 mg/mL glucose, 25 µg/mL insulin, […] putrescine, 30 nM selenium, and 20 nM progesterone). After one hour, 25 µL PDM with 4x concentrated serial dilutions of the test compounds was added to the cells.
The image acquisition and analysis were conducted according to established protocols. The cells were stained with Hoechst H-33342 (1 µg/mL) to visualise nuclei and calcein-AM (1 µM) to label viable cell structures. Fluorescent images were acquired using an automated imaging system. An image analysis algorithm detected nuclei to define somatic regions, which were then excluded from the total calcein-positive area. The remaining signal was quantified as the neurite area.
In the first step, matched technical replicates were averaged. […] For visualisation, GraphPad Prism 9 was used. […]
Supplementary Figure S1: Comparison of data from the MitoMet test and the PeriTox test. A) Exposure scheme for the PeriTox test (UKN5a):
For testing, cryopreserved hiPSC-derived immature human dorsal root ganglia neuron-like cells were thawed and plated into 96-well plates. Cells were treated with toxicants at one h after plating. Neurite outgrowth and viability were determined at 24 h later, using automated high content imaging. B) Benchmark concentrations (BMC25) were calculated as a measure for “onset of toxicity” for the MitoMet (UKN4b; as described in Figure 1) and UKN5a assay. If no BMC could be determined, the highest tested concentration was used as surrogate endpoint. The arrows indicate the sensitivity shifts of parent vs metabolite in the respective assay. […]

Where [2] appears, read: Homo sapiens, benchmark response 25%, neurite area, 24 h exposure, three independent experiments.

Where two headings read alike, the source gives them in different places. Some results are limits rather than exact numbers.

On to `O=C(c1ccccc1)c1ccc(O)cc1` [4-Hydroxybenzophenone], for which the IC25 in the assay with LUHMES cells (setting [2]) was 78000 nM. The “fold change between BMC25 values of parent and metabolite (potency ratio, parent divided by metabolite)” value in the assay with LUHMES cells is listed as over 6 fold. Further, the “effect on peripheral neurite outgrowth” value in assay [1] (result in words) is listed as “neither benzophenone nor its hydroxy metabolite showed any significant effect”.

Take `CN(c1c(Br)cc(Br)cc1Br)c1c([N+](=O)[O-])cc([N+](=O)[O-])cc1C(F)(F)F` [Bromethalin]: the IC25 in the assay on LUHMES cells (Homo sapiens, 24 h) amounted to 790 nM; with LUHMES cells (benchmark response 25%, neurite area, 24 h exposure, three independent experiments), 790 nM.

For the molecule `CCOCn1c(-c2ccc(Cl)cc2)c(C#N)c(Br)c1C(F)(F)F` [Chlorfenapyr], in the assay with LUHMES cells (setting [2]), the IC25 was over 10000 nM.

As for `N#Cc1c(-c2ccc(Cl)cc2)[nH]c(C(F)(F)F)c1Br` [Tralopyril], the IC25 with LUHMES cells (setting [2]) was 350 nM. For the same molecule, the “fold change between BMC25 values of parent and metabolite (potency ratio, parent divided by metabolite)” value with LUHMES cells is over 29 fold. Further, the “parent/metabolite potency ratio (BMC25)” value in assay [1] (listed under the metabolite) was determined as 15.
